The source of these data is patent publication US20250243171A1, “QUINAZOLINE COMPOUNDS FOR TREATMENT OF DISEASE” (Arthrosi Therapeutics, Inc., priority 2021, published 2025).

Holding throughout (assay): EC50 assay: Ba/F3 stable cell proliferation (CCK-8, 72 h)
Holding throughout (assay type): cell-based

Assay [1] has as its target T1, Ba/F3 stable cells (Homo sapiens, UniProt P00533, DUP767-769, cells depend on it).
T1 construct: EC50 Ba/F3-EGFR V769-D770insASV; other: Ba/F3-EGFR V769-D770insASV cells, 72 h, CCK-8
The conditions noted are these: Ba/F3-EGFR V769-D770insASV cells. How it is done:
(§1) 4,000 Ba/F3 stable cells/90 μL/well were plated onto 96-well cell culture plate (Grenier, Cat.No. 655180) and incubated at 37° C. with a humidified atmosphere of 5% CO2 for 2 h. Then the cells were treated with 10 μL compounds at serial titration. The final DMSO concentration is 0.1%. The cells treated with 0.1% DMSO (Vetec, Cat.No.V900090) as a positive control (Max), and medium with 0.1% DMSO was as a negative control (Min). Incubated the cells at 37° C. for 72 h. 10 μL the cell proliferation reagent CCK-8 (Dojindo, Cat.No. CK04 1000T) was added into each well and incubated the plate at 37° C. for 4 hours, the GD value was measured by SPECTRAmax plus (Molecular Devices) at 450 nm. Data processing with Graphpad 7.0.

Assay [2] concerns the target T2, Ba/F3 stable cells (Homo sapiens, UniProt P00533, DUP771-773, cells depend on it).
T2 construct: EC50 Ba/F3-EGFR H773-V774insNPH; other: Ba/F3-EGFR H773-V774insNPH cells, 72 h, CCK-8
The conditions noted are these: Ba/F3-EGFR H773-V774insNPH cells. How it is done:
as §1

Assay [3] deals with T3, Ba/F3 stable cells (Homo sapiens, UniProt P00533, INS763FQEA, cells depend on it).
T3 construct: EC50 Ba/F3-EGFR A763-Y764insFQEA; other: Ba/F3-EGFR A763-Y764insFQEA cells, 72 h, CCK-8
The conditions noted are these: Ba/F3-EGFR A763-Y764insFQEA cells. How it is done: as §1

Assay [4] addresses T4, Ba/F3 stable cells (Homo sapiens, UniProt P04626, DUP772-775, cells depend on it).
T4 construct: EC50 Ba/F3-HER2 A775-G776insYVMA; other: Ba/F3-HER2 A775-G776insYVMA cells, 72 h, CCK-8
The conditions noted are these: Ba/F3-HER2 A775-G776insYVMA cells. How it is done: as §1

The target of assay [5] is T5, Ba/F3 stable cells (Homo sapiens, UniProt P00533, DUP768-770, cells depend on it).
T5 construct: EC50 Ba/F3-EGFR D770-N771insSVD; other: Ba/F3-EGFR D770-N771insSVD cells, 72 h, CCK-8
T5 sequence (P00533 with tags, fused parts or gaps DUP768-770): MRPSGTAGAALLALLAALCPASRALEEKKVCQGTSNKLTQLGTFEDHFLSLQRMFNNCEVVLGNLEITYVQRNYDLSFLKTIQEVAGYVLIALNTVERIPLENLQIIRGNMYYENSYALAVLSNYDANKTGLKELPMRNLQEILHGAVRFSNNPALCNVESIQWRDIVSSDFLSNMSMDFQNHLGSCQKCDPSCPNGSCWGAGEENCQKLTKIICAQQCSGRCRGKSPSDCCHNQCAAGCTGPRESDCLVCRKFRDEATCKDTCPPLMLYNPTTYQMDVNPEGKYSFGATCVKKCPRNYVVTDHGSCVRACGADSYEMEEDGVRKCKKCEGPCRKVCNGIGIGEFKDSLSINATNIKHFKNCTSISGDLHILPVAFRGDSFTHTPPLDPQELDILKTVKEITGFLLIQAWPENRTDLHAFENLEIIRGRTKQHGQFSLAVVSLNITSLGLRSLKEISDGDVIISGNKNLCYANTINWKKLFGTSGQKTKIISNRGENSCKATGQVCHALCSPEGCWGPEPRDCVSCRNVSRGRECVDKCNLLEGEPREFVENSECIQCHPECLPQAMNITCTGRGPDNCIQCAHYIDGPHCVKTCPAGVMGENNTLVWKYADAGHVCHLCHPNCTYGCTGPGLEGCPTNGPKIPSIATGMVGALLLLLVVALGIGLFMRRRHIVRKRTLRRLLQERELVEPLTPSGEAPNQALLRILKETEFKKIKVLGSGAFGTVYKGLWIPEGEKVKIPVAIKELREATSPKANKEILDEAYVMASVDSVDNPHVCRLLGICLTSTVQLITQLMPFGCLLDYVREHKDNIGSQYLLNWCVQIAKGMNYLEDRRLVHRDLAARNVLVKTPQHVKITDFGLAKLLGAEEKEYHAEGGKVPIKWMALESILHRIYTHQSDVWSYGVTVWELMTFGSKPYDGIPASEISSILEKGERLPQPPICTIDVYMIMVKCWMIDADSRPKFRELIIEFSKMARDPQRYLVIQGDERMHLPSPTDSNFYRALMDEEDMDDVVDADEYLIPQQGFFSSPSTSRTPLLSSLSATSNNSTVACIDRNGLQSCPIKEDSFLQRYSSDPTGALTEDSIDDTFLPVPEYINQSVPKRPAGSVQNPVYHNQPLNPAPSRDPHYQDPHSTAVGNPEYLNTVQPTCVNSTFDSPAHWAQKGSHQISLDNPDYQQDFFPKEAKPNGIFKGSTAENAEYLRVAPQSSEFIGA
The conditions noted are these: Ba/F3-EGFR D770-N771insSVD cells. How it is done: as §1

The target of assay [6] is T6, Ba/F3 stable cells (Homo sapiens, UniProt P00533, T790M/L858R, cells depend on it).
T6 construct: EC50 Ba/F3-EGFR L858R-T790M; other: Ba/F3-EGFR L858R-T790M cells, 72 h, CCK-8
T6 sequence (P00533 whole entry T790M/L858R): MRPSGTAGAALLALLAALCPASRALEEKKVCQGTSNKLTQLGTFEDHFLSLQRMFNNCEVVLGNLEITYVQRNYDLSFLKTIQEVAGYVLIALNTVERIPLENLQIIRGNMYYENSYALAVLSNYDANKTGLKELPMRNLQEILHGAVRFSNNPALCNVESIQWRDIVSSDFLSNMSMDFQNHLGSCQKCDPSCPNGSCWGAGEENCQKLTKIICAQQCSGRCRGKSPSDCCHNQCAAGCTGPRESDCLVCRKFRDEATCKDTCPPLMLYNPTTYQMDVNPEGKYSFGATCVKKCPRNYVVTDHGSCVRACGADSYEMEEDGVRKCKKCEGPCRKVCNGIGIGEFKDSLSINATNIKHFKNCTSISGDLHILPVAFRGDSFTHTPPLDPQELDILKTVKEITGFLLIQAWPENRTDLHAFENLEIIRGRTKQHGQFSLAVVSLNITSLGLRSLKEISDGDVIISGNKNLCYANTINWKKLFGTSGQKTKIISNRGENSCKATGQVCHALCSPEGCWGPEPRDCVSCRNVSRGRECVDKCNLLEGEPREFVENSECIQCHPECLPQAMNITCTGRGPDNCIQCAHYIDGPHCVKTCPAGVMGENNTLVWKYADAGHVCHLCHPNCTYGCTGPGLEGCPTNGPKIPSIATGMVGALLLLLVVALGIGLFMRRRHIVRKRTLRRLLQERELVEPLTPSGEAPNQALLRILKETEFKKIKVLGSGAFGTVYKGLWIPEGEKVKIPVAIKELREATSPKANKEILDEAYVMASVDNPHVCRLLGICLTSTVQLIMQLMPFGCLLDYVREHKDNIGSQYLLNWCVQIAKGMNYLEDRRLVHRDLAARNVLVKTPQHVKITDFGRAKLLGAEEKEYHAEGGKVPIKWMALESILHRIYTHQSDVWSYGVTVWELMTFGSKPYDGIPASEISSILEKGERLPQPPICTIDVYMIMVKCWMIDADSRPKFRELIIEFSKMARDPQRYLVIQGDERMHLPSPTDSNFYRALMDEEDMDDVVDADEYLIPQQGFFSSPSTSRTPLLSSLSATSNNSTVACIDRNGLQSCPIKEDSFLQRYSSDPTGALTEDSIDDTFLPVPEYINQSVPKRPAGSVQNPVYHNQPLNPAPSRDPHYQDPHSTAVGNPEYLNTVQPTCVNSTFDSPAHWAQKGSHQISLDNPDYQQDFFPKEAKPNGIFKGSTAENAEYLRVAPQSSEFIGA
The conditions noted are these: Ba/F3-EGFR L858R-T790M cells. How it is done: as §1

T2 sequence (P00533 with tags, fused parts or gaps DUP771-773): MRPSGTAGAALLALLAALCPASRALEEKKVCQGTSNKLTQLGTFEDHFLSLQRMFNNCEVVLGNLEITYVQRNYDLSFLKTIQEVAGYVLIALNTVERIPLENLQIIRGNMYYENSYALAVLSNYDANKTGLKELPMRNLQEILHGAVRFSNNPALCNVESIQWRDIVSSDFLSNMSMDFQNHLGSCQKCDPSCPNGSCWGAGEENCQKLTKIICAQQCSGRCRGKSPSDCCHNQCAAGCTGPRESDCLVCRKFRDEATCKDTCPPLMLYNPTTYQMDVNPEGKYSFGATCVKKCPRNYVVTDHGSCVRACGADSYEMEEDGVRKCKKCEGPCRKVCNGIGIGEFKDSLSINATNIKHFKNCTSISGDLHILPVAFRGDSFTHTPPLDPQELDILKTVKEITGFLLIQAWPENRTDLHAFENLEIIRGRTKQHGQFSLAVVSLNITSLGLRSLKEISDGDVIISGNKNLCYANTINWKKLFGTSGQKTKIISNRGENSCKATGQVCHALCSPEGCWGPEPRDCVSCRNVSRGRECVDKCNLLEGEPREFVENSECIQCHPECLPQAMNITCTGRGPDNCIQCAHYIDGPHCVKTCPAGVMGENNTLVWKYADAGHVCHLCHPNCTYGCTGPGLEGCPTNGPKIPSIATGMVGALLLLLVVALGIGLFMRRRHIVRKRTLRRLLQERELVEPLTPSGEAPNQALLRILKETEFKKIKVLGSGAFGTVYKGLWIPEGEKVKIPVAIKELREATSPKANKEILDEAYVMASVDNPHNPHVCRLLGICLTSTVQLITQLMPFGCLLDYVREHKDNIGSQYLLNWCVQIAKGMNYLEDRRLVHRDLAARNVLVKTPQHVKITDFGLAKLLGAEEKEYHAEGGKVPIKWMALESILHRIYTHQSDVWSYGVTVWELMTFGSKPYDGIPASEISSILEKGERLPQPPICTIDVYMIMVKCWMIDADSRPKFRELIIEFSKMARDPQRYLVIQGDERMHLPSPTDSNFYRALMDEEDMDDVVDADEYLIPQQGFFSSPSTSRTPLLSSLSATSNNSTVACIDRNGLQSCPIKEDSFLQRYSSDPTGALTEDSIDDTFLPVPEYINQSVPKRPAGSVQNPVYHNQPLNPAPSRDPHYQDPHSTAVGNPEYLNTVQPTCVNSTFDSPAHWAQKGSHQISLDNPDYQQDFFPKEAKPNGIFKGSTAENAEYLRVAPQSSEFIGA
T1 sequence (P00533 with tags, fused parts or gaps DUP767-769): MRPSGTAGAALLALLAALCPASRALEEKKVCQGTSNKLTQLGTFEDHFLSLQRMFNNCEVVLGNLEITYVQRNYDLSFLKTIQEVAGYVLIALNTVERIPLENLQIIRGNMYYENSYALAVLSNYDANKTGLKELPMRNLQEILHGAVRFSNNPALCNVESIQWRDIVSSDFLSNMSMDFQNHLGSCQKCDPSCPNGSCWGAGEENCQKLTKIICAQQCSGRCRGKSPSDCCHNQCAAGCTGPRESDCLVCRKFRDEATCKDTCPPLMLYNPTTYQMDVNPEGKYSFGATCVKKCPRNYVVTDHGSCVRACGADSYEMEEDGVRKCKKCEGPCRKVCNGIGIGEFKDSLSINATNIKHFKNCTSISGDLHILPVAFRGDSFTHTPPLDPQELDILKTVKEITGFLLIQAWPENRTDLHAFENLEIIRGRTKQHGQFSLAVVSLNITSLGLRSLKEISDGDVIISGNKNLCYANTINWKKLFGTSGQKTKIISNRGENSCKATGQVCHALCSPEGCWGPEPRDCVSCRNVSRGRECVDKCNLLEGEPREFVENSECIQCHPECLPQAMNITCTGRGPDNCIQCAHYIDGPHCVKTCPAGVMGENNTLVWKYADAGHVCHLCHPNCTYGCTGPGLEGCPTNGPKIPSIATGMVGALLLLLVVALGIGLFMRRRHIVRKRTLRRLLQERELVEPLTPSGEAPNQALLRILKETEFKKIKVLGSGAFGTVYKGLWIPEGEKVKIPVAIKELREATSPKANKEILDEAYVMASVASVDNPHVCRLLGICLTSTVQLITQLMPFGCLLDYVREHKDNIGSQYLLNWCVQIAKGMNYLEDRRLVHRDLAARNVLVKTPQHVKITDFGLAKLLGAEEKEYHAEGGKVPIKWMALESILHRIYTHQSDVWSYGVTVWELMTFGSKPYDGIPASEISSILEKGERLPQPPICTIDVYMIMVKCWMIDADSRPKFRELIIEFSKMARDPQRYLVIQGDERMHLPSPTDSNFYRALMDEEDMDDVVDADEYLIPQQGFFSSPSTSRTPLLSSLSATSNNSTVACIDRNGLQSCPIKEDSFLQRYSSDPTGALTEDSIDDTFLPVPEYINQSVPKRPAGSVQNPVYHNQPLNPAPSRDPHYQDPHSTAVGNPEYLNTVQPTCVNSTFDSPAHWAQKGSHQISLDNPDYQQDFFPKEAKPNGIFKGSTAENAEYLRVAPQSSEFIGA

In general, EC50 refers to the concentration that produces a half-maximal response. High values mean lower potency in that assay, low ones higher potency in that assay. In the case of `C=CC(=O)N1CC(c2cc3c(Nc4ccc(Cl)c(Cl)c4F)ncnc3cc2OC)C1` [Compound 1, 1-(3-(4-((3,4-dichloro-2-fluorophenyl)amino)-7-methoxyquinazolin-6-yl)azetidin-1-yl)prop-2-en-1-one], the EC50 on Ba/F3 stable cells [1], on Ba/F3 stable cells [2], at Ba/F3 stable cells [3], on Ba/F3 stable cells [4], at Ba/F3 stable cells [5] and on Ba/F3 stable cells [6] was ≤ 200 nM in each case.
Take `C=CC(=O)N1CC(c2cc3c(Nc4ccc(OCc5ccccc5)c(Cl)c4F)ncnc3cc2OC)C1` [Compound 2, 1-(3-(4-((4-(benzyloxy)-3-chloro-2-fluorophenyl)amino)-7-methoxyquinazolin-6-yl)azetidin-1-yl)prop-2-en-1-one]: the EC50 at Ba/F3 stable cells [1], at Ba/F3 stable cells [2], at Ba/F3 stable cells [3], on Ba/F3 stable cells [4], on Ba/F3 stable cells [5] and at Ba/F3 stable cells [6] was > 1000 nM throughout.
Turning to `C=CC(=O)N1CCC(c2cc3c(Nc4ccc(Cl)c(Cl)c4F)ncnc3cc2OC)C1` (centres unmarked) [Compound 3, 1-(3-(4-((3,4-dichloro-2-fluorophenyl)amino)-7-methoxyquinazolin-6-yl)pyrrolidin-1-yl)prop-2-en-1-one], the EC50 on Ba/F3 stable cells [1] was ≤ 200 nM; on Ba/F3 stable cells [2], ≤ 200 nM; on Ba/F3 stable cells [3] it was ≤ 200 nM; at Ba/F3 stable cells [4], ≤ 200 nM; at Ba/F3 stable cells [5] it was ≤ 200 nM; at Ba/F3 stable cells [6] it was 200 to 1000 nM.
For `C=CC(=O)N1CC(c2cc3c(Nc4cccc5ccccc45)ncnc3cc2OC)C1` [Compound 4, 1-(3-(7-methoxy-4-(naphthalen-1-ylamino)quinazolin-6-yl)azetidin-1-yl)prop-2-en-1-one], the EC50 was ≤ 200 nM at Ba/F3 stable cells [1]; ≤ 200 nM at Ba/F3 stable cells [2]; ≤ 200 nM on Ba/F3 stable cells [3]; ≤ 200 nM at Ba/F3 stable cells [4]; 200 to 1000 nM on Ba/F3 stable cells [5]; 200 to 1000 nM at Ba/F3 stable cells [6].
`C=CC(=O)N1CC(c2cc3c(Nc4ccc5ccccc5c4)ncnc3cc2OC)C1` [Compound 5, 1-(3-(7-methoxy-4-(naphthalen-2-ylamino)quinazolin-6-yl)azetidin-1-yl)prop-2-en-1-one]: the EC50 was ≤ 200 nM on Ba/F3 stable cells [1]; 200 to 1000 nM on Ba/F3 stable cells [2]; ≤ 200 nM on Ba/F3 stable cells [3]; 200 to 1000 nM at Ba/F3 stable cells [4]; 200 to 1000 nM on Ba/F3 stable cells [5]; 200 to 1000 nM at Ba/F3 stable cells [6].
For `C=CC(=O)N1CC(c2cc3c(Nc4ccc(F)c(Cl)c4)ncnc3cc2OC)C1` [Compound 6, 1-(3-(4-((3-chloro-4-fluorophenyl)amino)-7-methoxyquinazolin-6-yl)azetidin-1-yl)prop-2-en-1-one], the EC50 at Ba/F3 stable cells [1] is ≤ 200 nM; on Ba/F3 stable cells [2], ≤ 200 nM; at Ba/F3 stable cells [3], ≤ 200 nM; on Ba/F3 stable cells [4], ≤ 200 nM; on Ba/F3 stable cells [5] it was 200 to 1000 nM; on Ba/F3 stable cells [6] it was 200 to 1000 nM.
`C=CC(=O)N1CC(c2cc3c(Nc4ccc(Cl)c5ccccc45)ncnc3cc2OC)C1` [Compound 7, 1-(3-(4-((4-chloronaphthalen-1-yl)amino)-7-methoxyquinazolin-6-yl)azetidin-1-yl)prop-2-en-1-one]: the EC50 on Ba/F3 stable cells [1] is 200 to 1000 nM; at Ba/F3 stable cells [2], 200 to 1000 nM; on Ba/F3 stable cells [3], ≤ 200 nM; on Ba/F3 stable cells [4], > 1000 nM; on Ba/F3 stable cells [5], > 1000 nM; at Ba/F3 stable cells [6], ≤ 200 nM.
Consider `C=CC(=O)N1CC(c2ccc3ncnc(Nc4ccc(Cl)c(Cl)c4F)c3c2)C1` [Compound 8, 1-(3-(4-((3,4-dichloro-2-fluorophenyl)amino)quinazolin-6-yl)azetidin-1-yl)prop-2-en-1-one], for which the EC50 was 200 to 1000 nM at Ba/F3 stable cells [1]; 200 to 1000 nM at Ba/F3 stable cells [2]; ≤ 200 nM on Ba/F3 stable cells [3]; 200 to 1000 nM at Ba/F3 stable cells [4]; 200 to 1000 nM on Ba/F3 stable cells [5]; > 1000 nM at Ba/F3 stable cells [6].
Consider `C=CC(=O)N1CCC(c2ccc3ncnc(Nc4ccc(Cl)c(Cl)c4F)c3c2)CC1` [Compound 9, 1-(4-(4-((3,4-dichloro-2-fluorophenyl)amino)quinazolin-6-yl)piperidin-1-yl)prop-2-en-1-one], for which the EC50 on Ba/F3 stable cells [1] was > 1000 nM; on Ba/F3 stable cells [2], > 1000 nM; at Ba/F3 stable cells [3] it was ≤ 200 nM; on Ba/F3 stable cells [4] it was 200 to 1000 nM; at Ba/F3 stable cells [5], > 1000 nM; on Ba/F3 stable cells [6], > 1000 nM.
Consider `C=CC(=O)N1CCC(c2cc3c(Nc4ccc(Cl)c(Cl)c4F)ncnc3cc2OC)CC1` [Compound 10, 1-(4-(4-((3,4-dichloro-2-fluorophenyl)amino)-7-methoxyquinazolin-6-yl)piperidin-1-yl)prop-2-en-1-one], for which the EC50 is ≤ 200 nM at Ba/F3 stable cells [1]; 200 to 1000 nM at Ba/F3 stable cells [2]; ≤ 200 nM at Ba/F3 stable cells [3]; 200 to 1000 nM at Ba/F3 stable cells [4]; 200 to 1000 nM on Ba/F3 stable cells [5]; > 1000 nM on Ba/F3 stable cells [6].
Consider `C=CC(=O)N1CC(c2cc3c(Nc4ccc5[nH]ccc5c4)ncnc3cc2OC)C1` [Compound 11, 1-(3-(4-((1H-indol-5-yl)amino)-7-methoxyquinazolin-6-yl)azetidin-1-yl)prop-2-en-1-one], for which the EC50 at Ba/F3 stable cells [1] was ≤ 200 nM; at Ba/F3 stable cells [2] it was ≤ 200 nM; at Ba/F3 stable cells [3], ≤ 200 nM; at Ba/F3 stable cells [4] it was 200 to 1000 nM; at Ba/F3 stable cells [5], 200 to 1000 nM; at Ba/F3 stable cells [6] it was > 1000 nM.
In the case of `C=CC(=O)N1CC(c2cc3c(Nc4ccc5c(c4)CCN5)ncnc3cc2OC)C1` [Compound 12, 1-(3-(4-(indolin-5-ylamino)-7-methoxyquinazolin-6-yl)azetidin-1-yl)prop-2-en-1-one], the EC50 on Ba/F3 stable cells [1], at Ba/F3 stable cells [2], on Ba/F3 stable cells [3], at Ba/F3 stable cells [4], at Ba/F3 stable cells [5] and at Ba/F3 stable cells [6] was > 1000 nM in each case.
On to `C=CC(=O)N1CC(c2cc3c(NCc4ccc(F)cc4)ncnc3cc2OC)C1` [Compound 13, 1-(3-(4-((4-fluorobenzyl)amino)-7-methoxyquinazolin-6-yl)azetidin-1-yl)prop-2-en-1-one], for which the EC50 at Ba/F3 stable cells [1] was 200 to 1000 nM; on Ba/F3 stable cells [2], 200 to 1000 nM; at Ba/F3 stable cells [3], ≤ 200 nM; at Ba/F3 stable cells [4], > 1000 nM; on Ba/F3 stable cells [5] it was > 1000 nM; at Ba/F3 stable cells [6] it was > 1000 nM.
Take `C=CC(=O)N1CC(c2cc3c(Nc4ccc(F)c5ccccc45)ncnc3cc2OC)C1` [Compound 14, 1-(3-(4-((4-fluoronaphthalen-1-yl)amino)-7-methoxyquinazolin-6-yl)azetidin-1-yl)prop-2-en-1-one]: the EC50 at Ba/F3 stable cells [1] is ≤ 200 nM; at Ba/F3 stable cells [2], ≤ 200 nM; at Ba/F3 stable cells [3], ≤ 200 nM; on Ba/F3 stable cells [4], > 1000 nM; at Ba/F3 stable cells [5] it was > 1000 nM; on Ba/F3 stable cells [6], ≤ 200 nM.
For the compound `C=CC(=O)N1CC(c2cc3c(NCc4cccc(Cl)c4)ncnc3cc2OC)C1` [Compound 15, 1-(3-(4-((3-chlorobenzyl)amino)-7-methoxyquinazolin-6-yl)azetidin-1-yl)prop-2-en-1-one], the EC50 at Ba/F3 stable cells [1] is ≤ 200 nM; on Ba/F3 stable cells [2], 200 to 1000 nM; at Ba/F3 stable cells [3] it was ≤ 200 nM; on Ba/F3 stable cells [4], > 1000 nM; on Ba/F3 stable cells [5], 200 to 1000 nM; on Ba/F3 stable cells [6], 200 to 1000 nM.
With `C=CC(=O)N1CC(c2cc3c(Nc4ccc(F)c(Cl)c4F)ncnc3cc2OC)C1` [Compound 16, 1-(3-(4-((3-chloro-2,4-difluorophenyl)amino)-7-methoxyquinazolin-6-yl)azetidin-1-yl)prop-2-en-1-one], the EC50 on Ba/F3 stable cells [1], on Ba/F3 stable cells [2], on Ba/F3 stable cells [3], at Ba/F3 stable cells [4], at Ba/F3 stable cells [5] and at Ba/F3 stable cells [6] was ≤ 200 nM throughout.
As for `C=CC(=O)N1CC(c2cc3c(Nc4ccc(Cl)c(Cl)c4F)ncnc3cc2O[C@H]2CCOC2)C1` [Compound 24, (S)-1-(3-(4-((3,4-dichloro-2-fluorophenyl)amino)-7-((tetrahydrofuran-3-yl)oxy)quinazolin-6-yl)azetidin-1-yl)prop-2-en-1-one], the EC50 at Ba/F3 stable cells [3] was 200 to 1000 nM.
Regarding `C=CC(=O)N1CCC(Oc2cc3c(Nc4ccc(Cl)c(Cl)c4F)ncnc3cc2OC)CC1` [Compound 133, 1-(4-((4-((3,4-dichloro-2-fluorophenyl)amino)-7-methoxyquinazolin-6-yl)oxy)piperidin-1-yl)prop-2-en-1-one], the EC50 at Ba/F3 stable cells [4] was ≤ 200 nM.
